Values joined by “and” are separate entries in the source; they are usually repeats but may differ in a detail not shown here. Equal values may be shown once. “Also recorded” adds a separate entry of the source. Read-outs that look alike come from different tables or passages of the source.
Assays:
[1] = test system: rabbit reticulocyte lysate; type: biochemical
vaccinia capping enzyme = vaccinia capping enzyme (Vaccinia virus, UniProt P04298); type: biochemical
[2] = target: vaccinia mRNA (nucleoside-2′-O—) methyltransferase (Vaccinia virus, UniProt P07617); type: biochemical
wheat germ lysate = type: biochemical
[3] = test system: tobacco acid pyrophosphatase (TAP); type: biochemical
[4] = target: vaccinia capping enzyme (guanine 7-methyltransferase activity) (Vaccinia virus, UniProt P04298); type: biochemical
[5] = target: RNA guanyltransferase activity of the vaccinia capping enzyme system (Vaccinia virus, UniProt P04298); details: cited from earlier work
BDCM cells = type: cell-based; details: for relative translation efficiency: poly(A)-tailed Renilla luciferase RNA
HeLa cells = type: cell-based; details: GTP-capped poly(A)-tailed Renilla luciferase RNA
[6] = rabbit reticulocyte lysate, poly(A)-tailed Renilla luciferase RNA, cap 0 structure, GTP-capped cap 0 RNA = 100%
[7] = rabbit reticulocyte lysate, poly(A)-tailed Renilla luciferase RNA, cap I structure
[8] = rabbit reticulocyte lysate, poly(A)-tailed firefly luciferase RNA, cap I structure
[9] = wheat germ lysate, poly(A)-tailed Renilla luciferase RNA, cap 0 structure, GTP-capped cap 0 RNA = 100%
[10] = wheat germ lysate, poly(A)-tailed Renilla luciferase RNA, cap I structure
[11] = capped RNA prepared per Method 6
[12] = cap 0 structure, GTP-capped cap 0 RNA = 100%
[13] = cap I structure, GTP-capped RNA = 100%

Question: Which “average relative translation efficiency” value [1, 6] does the source give for `CO[C@H]1[C@@H](O)[C@H](n2cnc3c(=O)[nH]c(N)nc32)O[C@@H]1COP(=O)(O)OP(=O)(O)OP(=O)(O)O` [3′-OMe-GTP, 3′-O-methylguanosine-5′-triphosphate] here?
Answer: 82%

Question: What about the “average relative translation efficiency” value [1, 7] of the same molecule?
Answer: 84%

Question: And the “average relative translation efficiency” value [1, 8]?
Answer: 137%

Question: And the “conversion of 51-base primary RNA transcript to 52-base capped RNA (in words)” value (vaccinia capping enzyme)?
Answer: quantitatively converted

Question: And the “methylation of the 2′-hydroxyl of the 5′-penultimate nucleotide by mRNA (nucleoside-2′-O—) methyltransferase” value [2]?
Answer: 52-base radioactive band was observed

Question: And the relative translation efficiency (wheat germ lysate; [9])?
Answer: 39%

Question: And the relative translation efficiency (wheat germ lysate; [10])?
Answer: 43%

Question: And the “removal of the cap nucleotide by tobacco acid pyrophosphatase (51-base band on PAGE)” value (“removal of the cap nucleotide” for short) [3, 11]?
Answer: 51-base band was observed

Question: With `Nc1nc2c(ccn2[C@@H]2O[C@H](COP(=O)(O)OP(=O)(O)OP(=O)(O)O)[C@@H](O)[C@H]2O)c(=O)[nH]1` [7-deaza-GTP, reference compound] as the molecule, how does the “substrate for the capping enzyme system (51-base primary RNA transcript converted into 52-base capped RNA)” value (“substrate for the capping enzyme system” below) (vaccinia capping enzyme) read?
Answer: not substrates for the capping enzyme system

Question: Which “methylation of the N^7 position of the cap nucleotide (radioactive methyl group in 52-base band)” value [4] does the source give for `Cn1c(N)nc2c(ncn2[C@@H]2O[C@H](COP(=O)(O)OP(=O)(O)OP(=O)(O)O)[C@@H](O)[C@H]2O)c1=O` [N^1-methyl-GTP, N^1-methylguanosine-5′-triphosphate] here?
Answer: did not contain any radioactivity

Question: What about the “conversion of 51-base primary RNA transcript to 52-base capped RNA (in words)” value (vaccinia capping enzyme) of the same molecule?
Answer: quantitatively converted

Question: What about the “substrate for the capping enzyme system” value (vaccinia capping enzyme) of the same molecule?
Answer: substrates for the capping enzyme system

Question: What about the relative translation efficiency (wheat germ lysate) of the same molecule?
Answer: 31%

Question: With `Nc1nc2c(ncn2[C@@H]2O[C@H](COP(=O)(O)O)[C@@H](O)[C@H]2O)c(=O)[nH]1` [GMP] as the molecule, how does the “use in place of GTP in an in vitro capping reaction” value (“use in place of GTP” for short) [5] read?
Answer: could not be used in place of GTP

Question: What does the source list for `CO[C@H]1[C@@H](O)[C@H]([n+]2cn(C)c3c(=O)[nH]c(N)nc32)O[C@@H]1COP(=O)([O-])OP(=O)(O)OP(=O)(O)OC[C@H]1O[C@@H](n2cnc3c(=O)[nH]c(N)nc32)[C@H](O)[C@@H]1O` [m2^7,3′-OGpppG, reference compound]?
Answer: relative translation efficiency (BDCM cells; [12]): 130%; relative translation efficiency (BDCM cells; [13]): 102%

Question: With `COc1nc(N)nc2c1ncn2[C@@H]1O[C@H](COP(=O)(O)OP(=O)(O)OP(=O)(O)O)[C@@H](O)[C@H]1O` [O^6-methyl-GTP, O^6-methylguanosine-5′-triphosphate] as the molecule, how does the “average relative translation efficiency” value [1, 6] read?
Answer: 167%

Question: And the “average relative translation efficiency” value [1, 7]?
Answer: 122%

Question: And the “average relative translation efficiency” value [1, 8]?
Answer: 97%

Question: What about the “conversion of 51-base primary RNA transcript into 52-base capped RNA (in words)” value [4] of the same molecule?
Answer: quantitatively converted

Question: What about the “methylation of the N^7 position of the cap nucleotide (radioactive methyl group in 52-base band)” value [4] of the same molecule?
Answer: catalyzed formation of N^7-methylated capped RNA

Question: What about the “51-base primary RNA transcript converted into 52-base capped RNA” value (vaccinia capping enzyme) of the same molecule?
Answer: approximately 70%

Question: And the “substrate for the capping enzyme system” value (vaccinia capping enzyme)?
Answer: substrates for the capping enzyme system

Question: What about the relative translation efficiency (BDCM cells; [12]) of the same molecule?
Answer: 115%

Question: And the relative translation efficiency (BDCM cells; [13])?
Answer: 117%

Question: What about the relative translation efficiency (wheat germ lysate; [9]) of the same molecule?
Answer: 80%

Question: What about the relative translation efficiency (wheat germ lysate; [10]) of the same molecule?
Answer: 59%

Question: For `[N-]=[N+]=N[C@H]1C[C@H](n2cnc3c(=O)[nH]c(N)nc32)O[C@@H]1COP(=O)(O)OP(=O)(O)OP(=O)(O)O` [3′-azido-2′,3′-ddGTP, 3′-azido-2′,3′-dideoxyguanosine-5′-triphosphate], which “substrate for the capping enzyme system” value (vaccinia capping enzyme) is on record?
Answer: substrates for the capping enzyme system

Question: Which “average relative translation efficiency” value [1, 6] does the source give for `Nc1nc2c(ncn2[C@@H]2O[C@H](COP(=O)(O)OP(=O)(O)OP(=O)(O)O)[C@@H](O)[C@H]2N)c(=O)[nH]1` [2′-amino-dGTP, 2′-amino-2′-deoxyguanosine-5′-triphosphate] here?
Answer: 148%

Question: And the “average relative translation efficiency” value [1, 7]?
Answer: 144%

Question: And the “average relative translation efficiency” value [1, 8]?
Answer: 100%

Question: And the “conversion of 51-base primary RNA transcript to 52-base capped RNA (in words)” value (vaccinia capping enzyme)?
Answer: quantitatively converted

Question: And the “methylation of the 2′-hydroxyl of the 5′-penultimate nucleotide by mRNA (nucleoside-2′-O—) methyltransferase” value [2]?
Answer: 52-base radioactive band was observed

Question: What about the relative translation efficiency (BDCM cells; [12]) of the same molecule?
Answer: 150%

Question: What about the relative translation efficiency (BDCM cells; [13]) of the same molecule?
Answer: 177%

Question: What about the relative translation efficiency (wheat germ lysate; [9]) of the same molecule?
Answer: 90%

Question: And the relative translation efficiency (wheat germ lysate; [10])?
Answer: 110%

Question: And the “removal of the cap nucleotide” value [3, 11]?
Answer: 51-base band was observed

Question: For `Nc1ccn([C@@H]2O[C@H](COP(=O)(O)OP(=O)(O)OP(=O)(O)O)[C@@H](O)[C@H]2O)c(=O)n1` [CTP], which “use in place of GTP” value [5] is on record?
Answer: could not be used in place of GTP

Question: With `Nc1nc2c(ncn2[C@@H]2O[C@H](COP(=O)(O)OP(=O)(O)OP(=O)(O)O)C[C@H]2O)c(=O)[nH]1` [3′-dGTP, 3′-deoxyguanosine-5′-triphosphate] as the molecule, how does the “average relative translation efficiency” value [1, 6] read?
Answer: 80%

Question: And the “average relative translation efficiency” value [1, 7]?
Answer: 64%

Question: And the “average relative translation efficiency” value [1, 8]?
Answer: 98%

Question: And the relative translation efficiency (wheat germ lysate; [10])?
Answer: 31%

Question: For `CO[C@@H]1[C@H](O)[C@@H](COP(=O)(O)OP(=O)(O)OP(=O)(O)O)O[C@H]1n1cnc2c(=O)[nH]c(N)nc21` [2′-OMe-GTP, 2′-O-methylguanosine-5′-triphosphate], which “average relative translation efficiency” value [1] is on record?
Answer: 132% and 97% and 170%

Question: What about the “methylation of the 2′-hydroxyl of the 5′-penultimate nucleotide by mRNA (nucleoside-2′-O—) methyltransferase” value [2] of the same molecule?
Answer: 52-base radioactive band was observed

Question: And the relative translation efficiency (wheat germ lysate)?
Answer: 36% and 47%

Question: What about the “removal of the cap nucleotide” value [3] of the same molecule?
Answer: 51-base band was observed

Question: For `[N-]=[N+]=N[C@@H]1[C@H](O)[C@@H](COP(=O)(O)OP(=O)(O)OP(=O)(O)O)O[C@H]1n1cnc2c(=O)[nH]c(N)nc21` [2′-azido-dGTP, 2′-azido-2′-deoxyguanosine-5′-triphosphate], which “average relative translation efficiency” value [1, 6] is on record?
Answer: 99%

Question: What about the “average relative translation efficiency” value [1, 7] of the same molecule?
Answer: 79%

Question: What about the “average relative translation efficiency” value [1, 8] of the same molecule?
Answer: 107%

Question: What about the “methylation of the 2′-hydroxyl of the 5′-penultimate nucleotide by mRNA (nucleoside-2′-O—) methyltransferase” value [2] of the same molecule?
Answer: 52-base radioactive band was observed

Question: And the relative translation efficiency (wheat germ lysate; [9])?
Answer: 41%

Question: And the relative translation efficiency (wheat germ lysate; [10])?
Answer: 42%

Question: For `Nc1nc2c(ncn2[C@@H]2O[C@H](COP(=O)(O)OP(=O)(O)OP(=O)(O)O)[C@@H](O)[C@H]2O)c(=O)[nH]1` [GTP, reference compound], which “RLUs with cap I structure relative to cap 0 structure” value (HeLa cells) is on record?
Answer: about 2.2 times higher

Question: And the “conversion of 51-base primary RNA transcript into 52-base capped RNA (in words)” value [4]?
Answer: quantitatively converted

Question: And the “methylation of the N^7 position of the cap nucleotide (radioactive methyl group in 52-base band)” value [4]?
Answer: contained the radioactive methyl group

Question: And the “conversion of 51-base primary RNA transcript to 52-base capped RNA (in words)” value (vaccinia capping enzyme)?
Answer: quantitatively converted

Question: And the “RLUs with cap I structure relative to cap 0 structure” value (BDCM cells; GTP-capped poly(A)-tailed Renilla luciferase RNA)?
Answer: about 1.3 times higher

Question: Which “use in place of GTP” value [5] does the source give for `O=c1ccn([C@@H]2O[C@H](COP(=O)(O)OP(=O)(O)OP(=O)(O)O)[C@@H](O)[C@H]2O)c(=O)[nH]1` [UTP] here?
Answer: could not be used in place of GTP

Question: Which “average relative translation efficiency” value [1, 6] does the source give for `Nc1nc2c(ncn2[C@@H]2O[C@H](COP(=O)(O)OP(=O)(O)OP(=O)(O)O)[C@@H](O)[C@H]2F)c(=O)[nH]1` [2′-F-dGTP, 2′-fluoro-2′-deoxyguanosine-5′-triphosphate] here?
Answer: 55%

Question: And the “average relative translation efficiency” value [1, 7]?
Answer: 107%

Question: What about the “average relative translation efficiency” value [1, 8] of the same molecule?
Answer: 133%

Question: What about the “methylation of the 2′-hydroxyl of the 5′-penultimate nucleotide by mRNA (nucleoside-2′-O—) methyltransferase” value [2] of the same molecule?
Answer: 52-base radioactive band was observed

Question: What about the relative translation efficiency (wheat germ lysate; [9]) of the same molecule?
Answer: 53%

Question: And the relative translation efficiency (wheat germ lysate; [10])?
Answer: 61%

Question: What about the “removal of the cap nucleotide” value ([3]; capped RNA prepared per Method 6 except in the absence of S-adenosyl-L-methionine) of the same molecule?
Answer: 51-base band was observed

Question: Which “use in place of GTP” value [5] does the source give for `O=c1[nH]cnc2c1ncn2[C@@H]1O[C@H](COP(=O)(O)OP(=O)(O)OP(=O)(O)O)[C@@H](O)[C@H]1O` [ITP] here?
Answer: could not be used in place of GTP

Question: Which results are given for `Cn1c[n+]([C@@H]2O[C@H](COP(=O)(O)OP(=O)([O-])OP(=O)(O)O)[C@@H](O)[C@H]2O)c2nc(N)[nH]c(=O)c21` [N^7-methyl-GTP, reference compound]?
Answer: substrate for the capping enzyme system (51-base primary RNA transcript converted into 52-base capped RNA) (vaccinia capping enzyme): not substrates for the capping enzyme system; use in place of GTP in an in vitro capping reaction [5]: could not be used in place of GTP

Question: For `Nc1ncnc2c1ncn2[C@@H]1O[C@H](COP(=O)(O)OP(=O)(O)OP(=O)(O)O)[C@@H](O)[C@H]1O` [ATP, reference compound], which “substrate for the capping enzyme system” value (vaccinia capping enzyme) is on record?
Answer: not substrates for the capping enzyme system

Question: And the “use in place of GTP” value [5]?
Answer: could not be used in place of GTP

Question: Which “substrate for the capping enzyme system” value (vaccinia capping enzyme) does the source give for `Nc1nc2c(ncn2[C@H]2C[C@H](N)[C@@H](COP(=O)(O)OP(=O)(O)OP(=O)(O)O)O2)c(=O)[nH]1` [3′-amino-2′,3′-ddGTP, 3′-amino-2′,3′-dideoxyguanosine-5′-triphosphate] here?
Answer: substrates for the capping enzyme system

Question: With `Nc1nc2c(ncn2[C@H]2CC[C@@H](COP(=O)(O)OP(=O)(O)OP(=O)(O)O)O2)c(=O)[nH]1` [2′,3′-ddGTP, 2′,3′-dideoxy-GTP, reference compound] as the molecule, how does the “substrate for the capping enzyme system” value (vaccinia capping enzyme) read?
Answer: not substrates for the capping enzyme system; also recorded: not a substrate for the capping enzyme system

Question: With `Nc1nc2c(ncn2[C@@H]2O[C@H](COP(=O)(O)OP(=O)(O)O)[C@@H](O)[C@H]2O)c(=O)[nH]1` [GDP] as the molecule, how does the “use in place of GTP” value [5] read?
Answer: could not be used in place of GTP

From patent US9115380B2, “Kits and methods for generating 5′ capped RNA” (priority 2006, dated 2015)
